According to US9693997B2, “Antiviral compounds” (priority 2013, dated 2017):
Where a name gives a salt, the structure may show the parent alone. Read-outs that look alike come from different tables or passages of the source.

Assays:
[1] = test system: Pseudotyped HCV GT1b particles (HCVpp), entry into Huh7-high CD81 cells; assay: microbe, parasite or virus in culture; type: cell-based, HCV GT1b Con1 strain
[2] = test system: pseudotyped VSV G particles (VSVpp) in Huh7-high CD81 cells; assay: microbe, parasite or virus in culture; type: cell-based, vesicular stomatitis virus
[3] = Hepatitis C virus, GT1B, 72 h, read-out: HCVpp GT-1b (EC50, μM)
[4] = Vesicular stomatitis virus, 72 h, read-out: VSVpp (EC50, μM)

Compound | EC50 [1, 3] | EC50 [2, 4] | EC50 ([1]; read-out: HCVpp GT-1b (EC50)) | EC50 ([2]; read-out: VSVpp (EC50))
Nc1nc(Nc2cc(Cl)c(-c3ccc([N+](=O)[O-])cc3)c(Cl)c2)n[nH]1 [Compound 83] | 0.532 µM | 4.34 µM |  | 
CS(=O)(=O)Nc1ccc(-c2c(Cl)cc(Nc3n[nH]c(N)n3)cc2Cl)c(F)c1 [Compound 28, N-[4′-(5-Amino-1H-[1,2,4]triazol-3-ylamino)-2′,6′-dichloro-2-fluoro-biphenyl-4-yl]-methanesulfonamide] | 0.083 µM | 4.02 µM |  | 
Nc1nc(Nc2cc(Cl)c(-c3ccc(O[C@H]4CCNC4)cc3)c(Cl)c2)n[nH]1 [Compound 271, N*3*-[2,6-Dichloro-4′-((S)-pyrrolidin-3-yloxy)-biphenyl-4-yl]-1H-[1,2,4]triazole-3,5-diamine] | 0.12 µM | 4.39 µM |  | 
CC(C)(C)OC(=O)N1CC[C@H](Oc2ccc(-c3c(Cl)cc(Nc4n[nH]c(N)n4)cc3Cl)cc2)C1 [Compound 273, (S)-3-[4′-(5-Amino-1H-[1,2,4]triazol-3-ylamino)-2′,6′-dichloro-biphenyl-4-yloxy]-pyrrolidine-1-carboxylic acid tert-butyl ester] | 0.28 µM | > 10 µM |  | 
CC(C)S(=O)(=O)c1ccc(-c2c(Cl)cc(Nc3n[nH]c(N)n3)cc2C(F)(F)F)cc1 [Compound 228, N*3*-[6-Chloro-4′-(propane-2-sulfonyl)-2-trifluoromethyl-biphenyl-4-yl]-1H-[1,2,4]triazole-3,5-diamine] |  | 7.52 µM | 0.042 µM | 
CC(C)(C)CCN1CCCC(CS(=O)(=O)c2ccc(-c3c(Cl)cc(Nc4n[nH]c(N)n4)cc3C(F)(F)F)cc2)C1 (stereo not drawn) [Compound 56, N*3*-{2-Chloro-4′-[1-(3,3-dimethyl-butyl)-piperidin-3-ylmethanesulfonyl]-6-trifluoromethyl-biphenyl-4-yl}-1H-[1,2,4]triazole-3,5-diamine; hydrochloride] | 0.046 µM | 3.74 µM |  | 
CNS(=O)(=O)c1cccc(-c2c(F)cc(Nc3nc(N)n[nH]3)cc2C(F)(F)F)c1 [Compound 81, 4′-(5-Amino-2H-[1,2,4]-triazol-3-ylamino)-6′-fluoro-2′-trifluoromethyl-biphenyl-3-sulfonic acid methylamide] | 0.549 µM | 34.9 µM |  | 
Nc1nc(Nc2cc(Cl)c(-c3ccc(S(=O)(=O)N4CC(F)(F)C4)cc3)c(C(F)(F)F)c2)n[nH]1 [Compound 224, N*3*-[6-Chloro-4′-(3,3-difluoro-azetidine-1-sulfonyl)-2-trifluoromethyl-biphenyl-4-yl]-1H-[1,2,4]triazole-3,5-diamine] | 0.02 µM | 4.57 µM |  | 
Nc1nc(Nc2cc(Cl)c(-c3cccc(S(N)(=O)=O)c3)c(C(F)(F)F)c2)n[nH]1 [Compound 197, 4′-(5-amino-1H-1,2,4-triazol-3-ylamino)-2′-chloro-6′-(trifluoromethyl)biphenyl-3-sulfonamide 2,2,2-trifluoroacetate] | 0.249 µM | > 10 µM |  | 
Nc1nc(Nc2ccc(-c3ccccc3F)c(Cl)c2)n[nH]1 [Compound 146, N*3*-(2-Chloro-2′-fluoro-biphenyl-4-yl)-1H-[1,2,4]triazole-3,5-diamine] | 2.88 µM | 29.4 µM |  | 
CCCCC(=O)Nc1ccc(-c2ccc(Nc3n[nH]c(N)n3)cc2)cc1 [Compound 53, Pentanoic acid [4′-(5-amino-1H-[1,2,4]triazol-3-ylamino)-biphenyl-4-yl]-amide] | 5.61 µM | 4.38 µM |  | 
Nc1nc(Nc2cc(Cl)c(-c3ccc(S(=O)(=O)C4CCCN(CCC(F)(F)F)C4)cc3)c(C(F)(F)F)c2)n[nH]1 (stereo not drawn) [Compound 11, N*3*-{2-Chloro-6-trifluoromethyl-4′-[1-(3,3,3-trifluoro-propyl)-piperidine-3-sulfonyl]-biphenyl-4-yl}-1H-[1,2,4]triazole-3,5-diamine; hydrochloride] | 0.017 µM | 6.78 µM |  | 
Nc1nc(Nc2cc(Cl)c(-c3ccc(S(=O)(=O)CC4CC4)cc3)c(C(F)(F)F)c2)n[nH]1 [Compound 64, N*3*-(6-Chloro-4′-cyclopropylmethanesulfonyl-2-trifluoromethyl-biphenyl-4-yl)-1H-1,2,4-triazole-3,5-diamine] | 0.023 µM | 9.54 µM |  | 
CC(C)(C)NS(=O)(=O)c1cc(-c2c(Cl)cc(Nc3n[nH]c(N)n3)cc2C(F)(F)F)ccc1OC(F)(F)F [Compound 193, 4′-(5-amino-1H-1,2,4-triazol-3-ylamino)-N-tert-butyl-2′-chloro-4-(trifluoromethoxy)-6′-(trifluoromethyl)biphenyl-3-sulfonamide] | 0.075 µM | 4.97 µM |  | 
Nc1nc(Nc2cc(Cl)c(-c3ccc(OCCC4CCCN4)cc3)c(Cl)c2)n[nH]1 (stereo not drawn) [Compound 264, N*3*-[2,6-Dichloro-4′-(2-pyrrolidin-2-yl-ethoxy)-biphenyl-4-yl]-1H-[1,2,4]triazole-3,5-diamine] | 0.048 µM | 6.5 µM |  | 
Nc1nc(Nc2cc(Cl)c(-c3ccc(OCC4CNC4)cc3)c(C(F)(F)F)c2)n[nH]1 [Compound 37, N*3*-[4′-(Azetidin-3-ylmethoxy)-2-chloro-6-trifluoromethyl-biphenyl-4-yl]-1H-[1,2,4]triazole-3,5-diamine; hydrochloride] | 0.107 µM | > 10 µM |  | 
[4′-(5-amino-1H-[1,2,4]triazol-3-ylamino)-2′-chloro-6′-trifluoromethyl-biphenyl-4-yl]-carbamic acid propyl ester [Compound 238] |  |  | 0.078 µM | 24.9 µM
CC(C)(C)OC(=O)N1CCC[C@@H]1COc1ccc(-c2c(Cl)cc(Nc3n[nH]c(N)n3)cc2C(F)(F)F)cc1 [Compound 267, (R)-2-[4′-(5-Amino-1H-[1,2,4]triazol-3-ylamino)-2′-chloro-6′-trifluoromethyl-biphenyl-4-yloxymethyl]-pyrrolidine-1-carboxylic acid tert-butyl ester] | 0.048 µM | 9.62 µM |  | 
Nc1nc(Nc2cc(Cl)c(-c3ccc(OC4CCNCC4)cc3)c(Cl)c2)n[nH]1 [Compound 262, N*3*-[2,6-Dichloro-4′-(piperidin-4-yloxy)-biphenyl-4-yl]-1H-[1,2,4]triazole-3,5-diamine] | 0.05 µM | 4.87 µM |  | 
Nc1nc(Nc2cc(Cl)c(-c3ccc(OC[C@H]4CCCN4)cc3)c(C(F)(F)F)c2)n[nH]1 (stereo in doubt) [Compound 279, N*3*-[6-Chloro-4′-(pyrrolidin-2-ylmethoxy)-2-trifluoromethyl-biphenyl-4-yl]-1H-[1,2,4]triazole-3,5-diamine] | 0.193 µM | 37 µM |  | 
COc1ccc(-c2c(Cl)cc(Nc3n[nH]c(N)n3)cc2C(F)(F)F)cc1S(=O)(=O)NC(C)(C)C [Compound 216, 4′-(5-Amino-1H-[1,2,4]triazol-3-ylamino)-6′-chloro-4-methoxy-2′-trifluoromethyl-biphenyl-3-sulfonic acid tert-butylamide] | 0.004 µM | 6.48 µM |  | 
Nc1nc(Nc2cc(Cl)c(-c3ccc(OC4CCCNC4)cc3)c(C(F)(F)F)c2)n[nH]1 (stereo not drawn) [Compound 130, N*3*-[6-Chloro-4′-(piperidin-3-yloxy)-2-trifluoromethyl-biphenyl-4-yl]-1H-[1,2,4]triazole-3,5-diamine hydrochloride] | 0.055 µM | 8.67 µM |  | 
CC(C)(C)OC(=O)c1ccc(-c2c(Cl)cc(Nc3n[nH]c(N)n3)cc2C(F)(F)F)cc1 [Compound 200, tert-butyl 4′-(5-amino-1H-1,2,4-triazol-3-ylamino)-2′-chloro-6′-(trifluoromethyl)biphenyl-4-carboxylate] | 0.574 µM | > 10 µM |  | 
CNC(=O)c1ccc(-c2c(Cl)cc(Nc3n[nH]c(N)n3)cc2C(F)(F)F)cc1 [Compound 189, 4′-(5-amino-1H-1,2,4-triazol-3-ylamino)-2′-chloro-N-methyl-6′-(trifluoromethyl)biphenyl-4-carboxamide] | 0.08 µM | 36.8 µM |  | 
CS(=O)(=O)N1CCOc2ccc(-c3c(Cl)cc(Nc4n[nH]c(N)n4)cc3C(F)(F)F)cc21 [Compound 44, N*3*-[3-Chloro-4-(4-methanesulfonyl-3,4-dihydro-2H-benzo[1,4]oxazin-6-yl)-5-trifluoromethyl-phenyl]-1H-[1,2,4]triazole-3,5-diamine] | 0.236 µM | 4.92 µM |  | 
Nc1nc(Nc2cc(Cl)c(-c3ccc(S(N)(=O)=O)cc3)c(Cl)c2)n[nH]1 [Compound 253] | 0.026 µM | 0.6 µM |  | 
CN(C)S(=O)(=O)c1cccc(-c2c(F)cc(Nc3nc(N)n[nH]3)cc2C(F)(F)F)c1 [Compound 84, 4′-(5-Amino-2H-[1,2,4]-triazol-3-ylamino)-6′-fluoro-2′-trifluoromethyl-biphenyl-3-sulfonic acid dimethylamide] | 0.43 µM | 16.8 µM |  | 
COc1ccc(-c2c(Cl)cc(Nc3n[nH]c(N)n3)cc2C(F)(F)F)cc1S(=O)(=O)NC1CCOCC1 [Compound 168, 4′-(5-amino-1H-1,2,4-triazol-3-ylamino)-2′-chloro-4-methoxy-N-(tetrahydro-2H-pyran-4-yl)-6′-(trifluoromethyl)biphenyl-3-sulfonamide] | 0.011 µM |  |  | 
COc1ccc(-c2c(Cl)cc(Nc3n[nH]c(N)n3)cc2C(F)(F)F)cc1S(=O)(=O)NC1CCNCC1 [Compound 222, 4′-(5-Amino-1H-[1,2,4]triazol-3-ylamino)-6′-chloro-4-methoxy-2′-trifluoromethyl-biphenyl-3-sulfonic acid piperidin-4-ylamide; compound with trifluoro-acetic acid] |  |  | 0.014 µM | 
COc1ccc(-c2c(Cl)cc(Nc3n[nH]c(N)n3)cc2C(F)(F)F)cc1S(N)(=O)=O [Compound 180, 4′-(5-amino-1H-1,2,4-triazol-3-ylamino)-2′-chloro-4-methoxy-6′-(trifluoromethyl)biphenyl-3-sulfonamide] | 0.036 µM |  |  | 
